Source: US20250026848A1, “IDENTIFICATION OF PATHOGENIC IMMUNE CELL SUBSETS IN CHECKPOINT INHIBITOR-INDUCED MYOCARDITIS” (U.S. GOVERNMENT AS REPRESENTED BY THE DEPARTMENT OF …, priority 2021, published 2025)

Tested on: ICI myocarditis
Assay: Longitudinal follow-up of one ICI myocarditis patient (MCE1) treated with glucocorticoids: cardiac biomarker troponin I
Type: in vivo, human
Conditions: one patient with MRI-confirmed ICI myocarditis; 60 mg/day from first day of diagnosis, four-week steroid taper
Method: In order to evaluate the time evolution of clonally-expanded T-cells in ICI myocarditis, we longitudinally analyzed PBMCs from one patient with MRI-confirmed myocarditis at early (t=0 days) and late (t=65 days) timepoints (FIG. 5A). This patient received glucocorticoids (60 mg/day of prednisone) for treatment of their myocarditis on the first day of their diagnosis (after blood collection) and underwent a successful four-week steroid taper with resolution of their cardiac biomarkers (troponin I, measured in ng/ml) by day 25. […] Due to the availability of early and late myocarditis blood samples, our study also provides new insight into the time-course of cellular and molecular changes that occur throughout the onset and resolution of ICI myocarditis. ICI myocarditis has a notoriously unpredictable time course and can occur with a median onset of 17-34 days after initiation of ICI therapy, although cases have been identified anywhere from 1 to 240 days from start of therapy (34,38-40). In our patient, we were able to collect blood at the time of diagnosis of the positive troponin I of 10 ng/ml (t=0) and track to day 65 after a full four-week course of glucocorticoids and resolution of clinical signs of myocarditis. […]

## C[C@]12C=CC(=O)C=C1CC[C@@H]1[C@@H]2C(=O)C[C@@]2(C)[C@H]1CC[C@]2(O)C(=O)CO [prednisone]
  resolution of cardiac biomarkers (troponin I): ≤ 25 days
